# According to patent US8076487B2, “Pyridone derivative and herbicide” (Kumiai Chemical Industry Co., Ltd., priority 2006, dated 2011):
# Columns and labels:
# Assay type in all cases: in vivo
# [1] = system: early watergrass (Echinochloa oryzicola Vasing); test: Test Example 1: herbicidal effect by soil application to paddy field; conditions: paddy field soil application; active ingredient 1,000 g per 1 hectare; wettable powder added dropwise to water surface the day after sowing; examined on the 21st day after application
# How it was run: (§1)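 Plants were sown in flooded (3 cm) paddy soil and evaluated for herbicidal effect 21 days after soil application in a greenhouse.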
# [2] = system: heartshape false pickerelweed (Monochoria vaginalis (Burm.f.) C.Presl); test: as above; conditions: paddy field soil application; active ingredient 1,000 g per 1 hectare; wettable powder added dropwise to water surface the day after sowing; examined on the 21st day after application
# How it was run: as §1
# [3] = system: Japanese bulrush (Scirpus juncoides Roxb.); test: as above; conditions: paddy field soil application; active ingredient 1,000 g per 1 hectare; wettable powder added dropwise to water surface the day after sowing; examined on the 21st day after application
# How it was run: as §1
# [4] = system: green foxtail (Setaria viridis (L.) P. Beauv.); test: Test Example 2: herbicidal effect by soil application to upland field; conditions: soil surface spray, upland field soil, 1,000 g active ingredient per hectare, 21st day after application
# How it was run: (§2)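 Greenhouse pot assay with field soil. Freshly sown seeds were covered with soil, then the surface was sprayed with diluted wettable powder: 1,000 g a.i./ha, 1,000 L/ha. Herbicidal effect scored at day 21 by standard criteria.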
# [5] = system: barnyardgrass (Echinochloa crus-galli (L.) P. Beauv. var. crus-galli); test: as above; conditions: soil surface spray, upland field soil, 1,000 g active ingredient per hectare, 21st day after application
# How it was run: as §2
# [6] = system: velvetleaf (Abutilon theophrasti medicus); test: as above; conditions: soil surface spray, upland field soil, 1,000 g active ingredient per hectare, 21st day after application
# How it was run: as §2
# [7] = system: slender amaranth (Amaranthus viridis L.); test: as above; conditions: soil surface spray, upland field soil, 1,000 g active ingredient per hectare, 21st day after application
# How it was run: as §2
# [8] = system: green foxtail (Setaria viridis (L.) P. Beauv.); test: Test Example 3: herbicidal effect by application to upland field (foliage treatment); conditions: foliage treatment, 1,000 g active ingredient per 1 hectare, 14th day after application, greenhouse
# How it was run: (§3)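 Seeds went into pots of field soil and grew under glass for two weeks. The whole plant was then sprayed from above with diluted wettable powder delivering 1,000 g/ha of active ingredient. Plants stayed in the greenhouse, and injury was graded against a standard 14 days after spraying.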
# [9] = system: barnyardgrass (Echinochloa crus-galli (L.) P. Beauv. var. crus-galli); test: as above; conditions: foliage treatment, 1,000 g active ingredient per 1 hectare, 14th day after application, greenhouse
# How it was run: as §3
# [10] = system: velvetleaf (Abutilon theophrasti medicus); test: as above; conditions: foliage treatment, 1,000 g active ingredient per 1 hectare, 14th day after application, greenhouse
# How it was run: as §3
# [11] = system: slender amaranth (Amaranthus viridis L.); test: as above; conditions: foliage treatment, 1,000 g active ingredient per 1 hectare, 14th day after application, greenhouse
# How it was run: as §3
Structure (SMILES),"herbicidal effect, Echinochloa oryzicola Vasing [1]","herbicidal effect, Monochoria vaginalis (Burm. f.) C. Presl [2]","herbicidal effect, Scirpus juncoides Roxb. [3]","herbicidal effect (index), Green Foxtail [4]","herbicidal effect (index), Barnyardgrass [5]","herbicidal effect (index), Velvetleaf [6]","herbicidal effect (index), Slender Amaranth [7]","herbicidal effect, Green Foxtail [8]","herbicidal effect, Barnyardgrass [9]","herbicidal effect, Velvetleaf [10]","herbicidal effect, Slender Amaranth [11]"
COCCCn1c(C(F)(F)F)ccc(C(=O)c2cnn(C)c2O)c1=O [IV-47],5 (90% or more of herbicidal effect and crop phytotoxicity),5 (90% or more of herbicidal effect and crop phytotoxicity),5 (90% or more of herbicidal effect and crop phytotoxicity),5 (90% or more of herbicidal effect and crop phytotoxicity),4 (70 to less than 90% of herbicidal effect and crop phytotoxicity),5 (90% or more of herbicidal effect and crop phytotoxicity),5 (90% or more of herbicidal effect and crop phytotoxicity),5 (90% or more of herbicidal effect and crop phytotoxicity),4 (70 to less than 90% of herbicidal effect and crop phytotoxicity),5 (90% or more of herbicidal effect and crop phytotoxicity),5 (90% or more of herbicidal effect and crop phytotoxicity)
COCCCn1c(C(F)(F)F)ccc(C(=O)c2cnn(C)c2OC(C)=O)c1=O [IV-48],5 (90% or more of herbicidal effect and crop phytotoxicity),5 (90% or more of herbicidal effect and crop phytotoxicity),5 (90% or more of herbicidal effect and crop phytotoxicity),5 (90% or more of herbicidal effect and crop phytotoxicity),4 (70 to less than 90% of herbicidal effect and crop phytotoxicity),5 (90% or more of herbicidal effect and crop phytotoxicity),5 (90% or more of herbicidal effect and crop phytotoxicity),4 (70 to less than 90% of herbicidal effect and crop phytotoxicity),5 (90% or more of herbicidal effect and crop phytotoxicity),5 (90% or more of herbicidal effect and crop phytotoxicity),5 (90% or more of herbicidal effect and crop phytotoxicity)
Cn1ncc(C(=O)c2ccc(C(F)(F)F)n(CCS(C)(=O)=O)c2=O)c1O [IV-54],5 (90% or more of herbicidal effect and crop phytotoxicity),4 (70 to less than 90% of herbicidal effect and crop phytotoxicity),4 (70 to less than 90% of herbicidal effect and crop phytotoxicity),5 (90% or more of herbicidal effect and crop phytotoxicity),5 (90% or more of herbicidal effect and crop phytotoxicity),5 (90% or more of herbicidal effect and crop phytotoxicity),5 (90% or more of herbicidal effect and crop phytotoxicity),5 (90% or more of herbicidal effect and crop phytotoxicity),5 (90% or more of herbicidal effect and crop phytotoxicity),5 (90% or more of herbicidal effect and crop phytotoxicity),5 (90% or more of herbicidal effect and crop phytotoxicity)
Cn1ncc(C(=O)c2ccc(C(F)(F)F)n(-c3ccccc3)c2=O)c1O [IV-62],5 (90% or more of herbicidal effect and crop phytotoxicity),5 (90% or more of herbicidal effect and crop phytotoxicity),5 (90% or more of herbicidal effect and crop phytotoxicity),5 (90% or more of herbicidal effect and crop phytotoxicity),5 (90% or more of herbicidal effect and crop phytotoxicity),5 (90% or more of herbicidal effect and crop phytotoxicity),5 (90% or more of herbicidal effect and crop phytotoxicity),5 (90% or more of herbicidal effect and crop phytotoxicity),5 (90% or more of herbicidal effect and crop phytotoxicity),5 (90% or more of herbicidal effect and crop phytotoxicity),5 (90% or more of herbicidal effect and crop phytotoxicity)
Cn1ncc(C(=O)c2ccc(C(F)(F)F)n(-c3cc(F)cc(F)c3)c2=O)c1O [IV-80],5 (90% or more of herbicidal effect and crop phytotoxicity),5 (90% or more of herbicidal effect and crop phytotoxicity),5 (90% or more of herbicidal effect and crop phytotoxicity),5 (90% or more of herbicidal effect and crop phytotoxicity),5 (90% or more of herbicidal effect and crop phytotoxicity),5 (90% or more of herbicidal effect and crop phytotoxicity),5 (90% or more of herbicidal effect and crop phytotoxicity),5 (90% or more of herbicidal effect and crop phytotoxicity),5 (90% or more of herbicidal effect and crop phytotoxicity),5 (90% or more of herbicidal effect and crop phytotoxicity),5 (90% or more of herbicidal effect and crop phytotoxicity)
Cc1nn(C)c(O)c1C(=O)c1ccc(C(F)(F)F)n(-c2cc(F)cc(F)c2)c1=O [IV-81],5 (90% or more of herbicidal effect and crop phytotoxicity),5 (90% or more of herbicidal effect and crop phytotoxicity),3 (50 to less than 70% of herbicidal effect and crop phytotoxicity),5 (90% or more of herbicidal effect and crop phytotoxicity),5 (90% or more of herbicidal effect and crop phytotoxicity),5 (90% or more of herbicidal effect and crop phytotoxicity),5 (90% or more of herbicidal effect and crop phytotoxicity),4 (70 to less than 90% of herbicidal effect and crop phytotoxicity),4 (70 to less than 90% of herbicidal effect and crop phytotoxicity),5 (90% or more of herbicidal effect and crop phytotoxicity),5 (90% or more of herbicidal effect and crop phytotoxicity)
Cn1ncc(C(=O)c2ccc(C(F)(F)F)n(-c3cc(F)ccc3F)c2=O)c1O [IV-83],5 (90% or more of herbicidal effect and crop phytotoxicity),5 (90% or more of herbicidal effect and crop phytotoxicity),5 (90% or more of herbicidal effect and crop phytotoxicity),5 (90% or more of herbicidal effect and crop phytotoxicity),5 (90% or more of herbicidal effect and crop phytotoxicity),5 (90% or more of herbicidal effect and crop phytotoxicity),5 (90% or more of herbicidal effect and crop phytotoxicity),5 (90% or more of herbicidal effect and crop phytotoxicity),5 (90% or more of herbicidal effect and crop phytotoxicity),5 (90% or more of herbicidal effect and crop phytotoxicity),5 (90% or more of herbicidal effect and crop phytotoxicity)
CCCS(=O)(=O)Oc1c(C(=O)c2ccc(C(F)(F)F)n(-c3cc(F)ccc3F)c2=O)cnn1C [IV-84],5 (90% or more of herbicidal effect and crop phytotoxicity),5 (90% or more of herbicidal effect and crop phytotoxicity),5 (90% or more of herbicidal effect and crop phytotoxicity),5 (90% or more of herbicidal effect and crop phytotoxicity),5 (90% or more of herbicidal effect and crop phytotoxicity),5 (90% or more of herbicidal effect and crop phytotoxicity),5 (90% or more of herbicidal effect and crop phytotoxicity),3 (50 to less than 70% of herbicidal effect and crop phytotoxicity),4 (70 to less than 90% of herbicidal effect and crop phytotoxicity),5 (90% or more of herbicidal effect and crop phytotoxicity),4 (70 to less than 90% of herbicidal effect and crop phytotoxicity)
